Measurements: ChEMBL document CHEMBL5233249, “Recent advancements in the development of heterocyclic anti-inflammatory agents” (Eur J Med Chem, 2020)
In brackets after ≈: the same amount, converted by molar mass.

Columns and labels:
[1] = molecular target: T1, Polyunsaturated fatty acid 5-lipoxygenase (Homo sapiens, UniProt P09917); test: Inhibition of 5-LOX (unknown origin) after 5 mins by colorimetric method
T1 sequence (P09917 whole entry): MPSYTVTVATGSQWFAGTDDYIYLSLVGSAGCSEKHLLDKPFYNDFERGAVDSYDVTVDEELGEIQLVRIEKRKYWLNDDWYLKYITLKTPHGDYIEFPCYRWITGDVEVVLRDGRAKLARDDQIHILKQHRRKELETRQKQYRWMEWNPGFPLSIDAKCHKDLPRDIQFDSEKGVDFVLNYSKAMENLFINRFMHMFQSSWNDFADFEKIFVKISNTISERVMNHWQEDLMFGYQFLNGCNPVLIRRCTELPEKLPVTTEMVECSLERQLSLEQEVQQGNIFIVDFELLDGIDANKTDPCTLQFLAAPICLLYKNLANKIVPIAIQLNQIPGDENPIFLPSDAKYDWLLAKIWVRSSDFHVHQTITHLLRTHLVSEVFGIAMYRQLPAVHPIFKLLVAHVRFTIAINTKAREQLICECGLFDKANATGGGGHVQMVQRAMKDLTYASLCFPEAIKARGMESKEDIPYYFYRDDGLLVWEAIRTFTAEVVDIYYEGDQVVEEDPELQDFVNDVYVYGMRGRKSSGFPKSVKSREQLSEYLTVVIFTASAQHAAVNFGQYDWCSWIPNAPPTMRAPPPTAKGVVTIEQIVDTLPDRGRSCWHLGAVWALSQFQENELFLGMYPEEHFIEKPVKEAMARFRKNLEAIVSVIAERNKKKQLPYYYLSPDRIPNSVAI

Rattus norvegicus [2] = test: Anti-inflammatory activity against Carrageenan-induced paw edema in PO dosed Wistar albino rat assessed as inhibition of edema measured after 3 hr relative to control; type: functional; design: scale not given: the % may be the effect or the level left
Rattus norvegicus [3] = test: Anti-inflammatory activity against Carrageenan-induced paw edema in PO dosed Wistar albino rat assessed as inhibition of edema measured after 2 hr relative to control; type: functional; design: scale not given: the % may be the effect or the level left
Rattus norvegicus [4] = test: Anti-inflammatory activity against Carrageenan-induced paw edema in PO dosed Wistar albino rat assessed as inhibition of edema measured after 1 hr relative to control; type: functional; design: scale not given: the % may be the effect or the level left
Rattus norvegicus [5] = test: Anti-inflammatory activity against Carrageenan-induced paw edema in PO dosed Wistar albino rat assessed as inhibition of edema measured after 4 hr relative to control; type: functional; design: scale not given: the % may be the effect or the level left
Erythrocyte [6] = test: Anti-inflammatory activity in rat red blood cells assessed as stabilization of cell membrane at 500 microg/ml relative to control; type: functional; conditions: dose 500 µg/ml
Erythrocyte [7] = test: Anti-inflammatory activity in rat red blood cells assessed as stabilization of cell membrane at 200 microg/ml relative to control; type: functional; conditions: dose 200 µg/ml
[8] = Anti-inflammatory activity assessed using bovine serum albumin/egg albumin proteins assessed as protein denaturation measured at 95 degC for 20 mins by measuring turbidity by UV-Vis spectrophotometer; type: functional
[9] = molecular target: T2, Prostaglandin G/H synthase 2 (Homo sapiens) (UniProt P35354); test: Inhibition of COX-2 (unknown origin) assessed as inhibition at 100 mg/kg relative to control; type: organism-based
T2 sequence (whole entry): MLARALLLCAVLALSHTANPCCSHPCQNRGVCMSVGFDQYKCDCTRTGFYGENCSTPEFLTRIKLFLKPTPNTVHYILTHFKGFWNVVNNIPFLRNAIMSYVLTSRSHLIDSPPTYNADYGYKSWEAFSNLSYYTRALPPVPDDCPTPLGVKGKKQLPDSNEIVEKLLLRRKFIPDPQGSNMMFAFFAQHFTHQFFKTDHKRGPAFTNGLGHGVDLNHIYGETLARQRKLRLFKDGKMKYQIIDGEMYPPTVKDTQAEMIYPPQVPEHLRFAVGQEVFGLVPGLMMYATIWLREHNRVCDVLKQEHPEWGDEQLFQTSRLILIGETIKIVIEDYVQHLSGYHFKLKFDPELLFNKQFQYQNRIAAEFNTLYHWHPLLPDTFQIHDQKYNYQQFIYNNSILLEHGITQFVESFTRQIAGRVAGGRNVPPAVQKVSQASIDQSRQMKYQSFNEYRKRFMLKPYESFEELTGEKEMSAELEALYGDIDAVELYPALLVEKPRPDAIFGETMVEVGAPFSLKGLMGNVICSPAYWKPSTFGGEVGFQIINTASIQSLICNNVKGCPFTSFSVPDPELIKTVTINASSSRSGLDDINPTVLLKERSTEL

Rattus norvegicus [10] = test: Anti-inflammatory activity against carrageenan-induced Albino Wistar rat paw edema model assessed as inhibition of rat paw edema at 50 mg/kg, po after 3 hrs relative to control; type: functional; design: scale not given: the % may be the effect or the level left
Rattus norvegicus [11] = test: Anti-ulcerative activity in Carrageenan-induced Sprague-Dawley rat ulcer model assessed as inhibition of ulcer index at 10 mg/kg,po; type: functional
Erythrocyte [12] = test: Anti-inflammatory activity in human red blood cells assessed as stabilization of cell membrane; type: functional, cell-based
Rattus norvegicus [13] = test: Anti-inflammatory activity against formalin-induced foot paw edema in PO dosed rat at 10 mg/kg assessed as inhibition of edema measured after 4 hr relative to control; type: functional
[14] = Antioxidant activity assessed as DPPH radical scavenging activity incubated for 20 mins by spectrophotometric analysis; type: functional
[15] = Anti-inflammatory activity assessed as protein denaturation using bovine serum albumin relative to control; type: functional
Rattus norvegicus [16] = test: Anti-ulcerative activity in aspirin induced Wistar rat ulcer model assessed as inhibition of ulcer index at 20 mg/kg,po; type: functional
Mus musculus = test: Anti-inflammatory activity against Carrageenan-induced paw edema in mouse model assessed as inhibition of edema at 100 mg/kg measured after 3 hrs relative to control; type: functional; design: scale not given: the % may be the effect or the level left
RAW264.7 = test: Anti-inflammatory activity in mouse RAW264.7 cells assessed as inhibition of LPS-induced NO production in macrophages; type: functional, cell-based
[17] = molecular target: T3, Prostaglandin G/H synthase 1 (Ovis aries, UniProt P05979); test: Inhibition of ovine COX-1 by EIA method
T3 sequence (P05979 whole entry): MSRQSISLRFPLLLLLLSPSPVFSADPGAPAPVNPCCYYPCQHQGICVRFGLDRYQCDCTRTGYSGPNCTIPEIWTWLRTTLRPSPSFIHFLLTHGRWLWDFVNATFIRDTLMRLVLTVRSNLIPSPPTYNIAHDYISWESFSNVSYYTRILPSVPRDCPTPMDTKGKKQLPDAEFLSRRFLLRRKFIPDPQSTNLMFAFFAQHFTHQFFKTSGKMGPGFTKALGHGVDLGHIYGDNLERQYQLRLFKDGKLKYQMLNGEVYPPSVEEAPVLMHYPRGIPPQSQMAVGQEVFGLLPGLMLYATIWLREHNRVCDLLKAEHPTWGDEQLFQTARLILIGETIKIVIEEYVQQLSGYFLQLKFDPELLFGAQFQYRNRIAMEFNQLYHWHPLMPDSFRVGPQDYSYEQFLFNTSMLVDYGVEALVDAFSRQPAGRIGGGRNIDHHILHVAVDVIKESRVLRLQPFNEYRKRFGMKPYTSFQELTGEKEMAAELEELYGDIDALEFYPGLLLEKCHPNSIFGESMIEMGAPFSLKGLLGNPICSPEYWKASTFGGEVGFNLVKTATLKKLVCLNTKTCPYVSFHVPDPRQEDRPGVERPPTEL

[18] = Anti-inflammatory activity assessed as heat -induced protein denaturation using hen egg albumin at 31.25 ug/ml relative to control; type: functional; conditions: dose 31.25 µg/ml

N=C1/C(=N\Nc2ccc(Cl)cc2)C(N)=NN1c1ccc(S(N)(=O)=O)cc1
IC50 [1]: 2310 nM

N#CC(C#N)/N=N/c1ccc2c(c1)CCC2
Activity (Rattus norvegicus [2]): 64.83%

CC(C)(CO)NC(=O)CCCC(=O)/C=C/c1cn(-c2ccccc2)nc1-c1ccccc1
Activity (Rattus norvegicus [3]): 25.56% | Activity (Rattus norvegicus [4]): 40% | Activity (Rattus norvegicus [5]): 30.95%

COc1ccc(-c2nn(-c3ccccc3)cc2CCC(=O)OCc2cn(-c3cccc(Cl)c3)nn2)cc1
Activity (Erythrocyte [6]): 94% | Activity (Erythrocyte [7]): 70% | IC50 [8]: 60.56 µg/mL (≈ 118 µM)

CC(=O)Oc1ccccc1C(=O)O
inhibition [9]: 11.1%

CS(=O)(=O)c1ccc(-n2cc(/C=N/Nc3ccc(S(N)(=O)=O)cc3)c(-c3ccc(Br)cc3)n2)cc1
Activity (Rattus norvegicus [10]): 80% | UI (Rattus norvegicus [11]): 3.77

Oc1ccccc1-c1cc(-c2cc3cc4ccccc4nc3s2)[nH]n1
EC50 (Erythrocyte [12]): 11 µg/mL (≈ 32 µM)

Nc1cc(-c2ccccc2)nn1-c1nc2c(cnn2-c2ccccc2)c(=O)n1-c1ccccc1
inhibition in vivo at 10 mg/kg (Rattus norvegicus [13]): 50%

Oc1ccc(Cl)cc1-c1cc(-c2cc3cc4ccccc4nc3s2)[nH]n1
EC50 (Erythrocyte [12]): 14 µg/mL (≈ 37.1 µM)

O=C(O)C(F)(F)C(O)c1cn(-c2ccccc2)nc1-c1ccc(Cl)cc1Cl (configuration not stated)
inhibition [9]: 38.6% | Activity [14]: 76%

O=C(O)Cc1ccccc1Nc1c(Cl)cccc1Cl
Activity [15]: 84.1%

CC(C)Cc1ccc(C(C)C(=O)O)cc1 (configuration not stated) [IBUPROFEN]
UI (Rattus norvegicus [16]): 20.25 | Activity (Mus musculus): 70.65% | UI (Rattus norvegicus [11]): 20.25

CC(=O)Nc1ccc(OC(=O)CCCC(=O)/C=C/c2cn(-c3ccccc3)nc2-c2ccccc2)cc1
Activity (Rattus norvegicus [3]): 15.56% | Activity (Rattus norvegicus [4]): 20% | Activity (Rattus norvegicus [5]): 28.57%

C=CC1=CN=CC2C(=O)N3CCc4c([nH]c5ccccc45)C3=CC12 (configuration not stated)
IC50 (RAW264.7): 1280 nM

N#CC(/N=N/c1ccc2c(c1)CCC2)=C(\N)N1CCCCC1
Activity (Rattus norvegicus [2]): 63.95%

O=C1NC(=O)C(=NNc2cccc(-c3nc4ccccc4[nH]3)c2)C(=O)N1
IC50 [17]: 2760 nM

Cc1c(/N=C/c2c(OCc3cc(=O)oc4cc(O)ccc34)ccc3ccccc23)c(=O)n(-c2ccccc2)n1C
Activity [18]: 67.3%
